In article PMC9463526 (Journal of Pharmaceutical Analysis, 2022):
Read-outs that look alike come from different tables or passages of the source.

Legend:
[1] = rat; cited from earlier work
[2] = Equilibrium dialysis, fraction unbound in patient brain tumor tissue; type: in vitro ADME; conditions: human, five patients, 16 h equilibrium dialysis
Protocol: (§1) Equilibrium dialysis was employed to measure the fraction unbound of analytes in plasma, brain, and brain tumor tissue homogenates using 96-well DispoEquilibrium Dialyzer plates with a 10 kDa cut-off regenerated cellulose membrane. Dialysis was performed using 180 μL of human plasma or tissue homogenate against an equal volume of PBS (pH 7.4) in a dual-plate rotator (Harvard Apparatus, Holliston, MA, USA). Equilibrium time was initially optimized by analyzing samples after 2, 4, 6, 8, 16, and 24 h of dialysis at concentrations of 20 and 200 nM in human plasma and brain homogenate. The dialysates were collected and processed as described in Sections 2.3.2 and 2.3.3. The recovery of analytes was calculated as the ratio of analyte concentration after dialysis (sum of concentrations found in PBS and matrix fractions) to the total concentration to ensure the reliability and reproducibility of the assay. The experiments were repeated at least three times, and each sample in triplicate and average fraction unbound values were determined.
(§2) The fraction unbound in plasma (fu, plasma) and tissue homogenate (fu, hom) was evaluated as the analyte concentration ratio of post-dialysis PBS (cu) to post-dialysis plasma (cp, Eq. (1)) or homogenate (chom, Eq. (2)).(1) fu,plasma =cu/cp (2) fu,hom =cu/chom
(§3) The fraction unbound in the actual tissue (fu, tissue) was obtained by incorporating the unbound fraction in the tissue homogenate (fu, hom) and the dilution factor (Df) into Eq. (3).(3) fu,tissue = fu,hom/[Df - (Df - 1)fu,hom]
(§4) Unbound drug levels in the actual plasma and brain tumor tissue were measured using dialysis for 16 h to reach equilibrium. The mean of fraction unbound values determined in five patient samples was calculated.
The validated bioanalytical method was employed to investigate analytes pharmacokinetics in the plasma, brain tumor, and CSF in GBM patients (ClinicalTrials.gov identifier: NCT04391595). The protocol was reviewed and approved by the Institutional Review Board of the Barrow Neurological Institute, St. Joseph's Hospital and Medical Center (Phoenix, AZ, USA). All patients enrolled in the trial provided written informed consent. […] Blood, CSF, and GBM tissue (including gadolinium-contrast enhancing and non-enhancing regions) samples were obtained intra-operatively from each patient on the […] on the planned operation day. Blood was centrifuged at 4 °C and 3,000 r/min for 10 min; plasma was subsequently collected. Brain tumors were resected 7–9 h after the last dose was administered. Once resected, the tissue samples were rinsed with PBS, paper dried, and freshly frozen in liquid nitrogen. The samples were then stored at −80 °C in a freezer for later analysis.

[3] = Equilibrium dialysis, fraction unbound in plasma; type: in vitro ADME, human; conditions: pH 7.4, 16 h equilibrium dialysis
Protocol: as §1, §2, §4

[4] = cited from earlier work
[5] = set-up: method as in investigational brochures; conditions: ref investigational brochures; cited from earlier work
[6] = cited from earlier work; remark: listed apart in the source
[7] = Analyte stability in brain homogenate; type: physicochemical, human; conditions: for Freeze-thaw stability, Accuracy / Freeze-thaw stability, Difference: 3 cycles; for Freeze-thaw stability, Difference / Benchtop stability, Difference / Processed sample stability, Difference / Autosampler stability (5 °C), Difference / Long-term stability (−20 °C), Difference: vs freshly processed QC; for Benchtop stability, Accuracy / Benchtop stability, Difference: 6 h; for Processed sample stability, Accuracy / Processed sample stability, Difference: 22 h; for Autosampler stability (5 °C), Accuracy / Autosampler stability (5 °C), Difference: 96 h; for Long-term stability (−20 °C), Difference: 39 days
Protocol: The stability of the analytes was studied under various storage and processing conditions. […] Short- and long-term stability studies of all analytes were conducted in human blank plasma and brain homogenate under several storage conditions. Analyte stability in biological matrices was analyzed using freshly prepared calibration standards and QC samples. The percentage difference between the stability and freshly processed QC was also assessed. Re-injection reproducibility was evaluated within the sample stability period in the autosampler. Analytes were considered stable if the accuracy at each level was ±15.0% of the nominal value. Additionally, the difference from corresponding comparison QC samples must be within ±15.0%.

[8] = mouse; cited from earlier work
[9] = Equilibrium dialysis, fraction unbound in brain homogenate; type: in vitro ADME, human; conditions: pH 7.4; human brain homogenate spiked at 20 and 200 nM; 16 h equilibrium dialysis; read-out: Fraction unbound (fu), Brain
Protocol: as §1, §2, §3

fraction unbound at 16 h ([2]; pH 7.4, gadolinium contrast enhancing GBM region, read-out: Fraction unbound (fu), GBM (E)): 0.014
fraction unbound at 16 h ([2]; pH 7.4, gadolinium contrast non-enhancing GBM region, read-out: Fraction unbound (fu), GBM (NE)): 0.011
fraction unbound at 16 h ([3]; human, plasma of five GBM patients, read-out: Fraction unbound (fu), Plasma (patients)): 0.026
fraction unbound at 16 h ([3]; pooled human plasma spiked at 20 and 200 nM, read-out: Fraction unbound (fu), Plasma (pooled)): 0.026
Freeze-thaw stability, Accuracy ([7]; HQC 400.0 nM): 106.8%
Freeze-thaw stability, Difference ([7]; HQC 400.0 nM): −3.2%
Freeze-thaw stability, Accuracy ([7]; LQC 0.6 nM): 104.4%
Freeze-thaw stability, Difference ([7]; LQC 0.6 nM): −5.7%
Benchtop stability, Accuracy ([7]; HQC 400.0 nM): 97.3%
Benchtop stability, Difference ([7]; HQC 400.0 nM): −3.7%
Benchtop stability, Accuracy ([7]; LQC 0.6 nM): 108.3%
Benchtop stability, Difference ([7]; LQC 0.6 nM): 6.7%
Processed sample stability, Accuracy ([7]; HQC 400.0 nM): 99.6%
Processed sample stability, Difference ([7]; HQC 400.0 nM): −1.4%
Processed sample stability, Accuracy ([7]; LQC 0.6 nM): 104.5%
Processed sample stability, Difference ([7]; LQC 0.6 nM): 3.0%
Autosampler stability (5 °C), Accuracy ([7]; HQC 400.0 nM): 102.8%
Autosampler stability (5 °C), Difference ([7]; HQC 400.0 nM): 3.3%
Autosampler stability (5 °C), Accuracy ([7]; LQC 0.6 nM): 108.3%
Autosampler stability (5 °C), Difference ([7]; LQC 0.6 nM): 13.8%
Long-term stability (−20 °C), Difference ([7]; HQC 400.0 nM): −1.5%
Long-term stability (−20 °C), Difference ([7]; LQC 0.6 nM): −6.9%
fraction unbound at 16 h [9]: 0.013
Structure (SMILES): CCN1CCN(Cc2ccc(Nc3ncc(F)c(-c4cc(F)c5nc(C)n(C(C)C)c5c4)n3)nc2)CC1 [Abemaciclib]
fu, brain [1]: 0.0043
Distribution (LogD, pH7.4), experimentally measured (value in parenthesis) ([4]; pH 7.4): 2.70
Lipophilicity, experimentally measured (value in parenthesis) ([4]; ref [12]): 3.36
pKa (strongest basic) [5]: 7.95
fu, plasma (previously published) [6]: 0.027
fu, brain [8]: 0.0079
